Assay [1] addresses T1, serine racemase (Rattus norvegicus, UniProt Q76EQ0).
T1 construct: the rat brain enzyme we have purified; from tissue; host or cells: rat brain (10–14 day old Sprague-Dawley rats)
T1 sequence (Q76EQ0 1-333): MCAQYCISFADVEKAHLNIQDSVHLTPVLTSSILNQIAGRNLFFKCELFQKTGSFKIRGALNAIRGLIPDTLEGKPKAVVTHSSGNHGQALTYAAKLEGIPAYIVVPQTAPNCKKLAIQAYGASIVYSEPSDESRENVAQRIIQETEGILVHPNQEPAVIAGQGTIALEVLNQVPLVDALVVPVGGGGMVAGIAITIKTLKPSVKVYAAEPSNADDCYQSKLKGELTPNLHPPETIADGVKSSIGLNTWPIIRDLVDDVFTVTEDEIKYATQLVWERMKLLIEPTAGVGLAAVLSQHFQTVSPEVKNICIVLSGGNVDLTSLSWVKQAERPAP
The assay is described as follows: Inhibition of serine racemase by PLP inhibitors and sulfhydryl oxidation; PLP requirement. Type of assay: biochemical. The settings on record: for Effect on enzyme activity (PLP inhibitors): 37° C., pH 8.0, 20 mM L-serine, 2 mM DTT, 10 μM PLP, different concentrations (FIG. 4A). On the procedure: FIG. 4. inhibition of serine racemase by PLP inhibitors and sulfhydryl oxidation. FIG. 4A. Enzyme activity was monitored at 37° C. in a medium containing 50 mM Tris-HCl (pH 8.0), 20 mM L-serine, 40–100 μg/ml purified enzyme, 1 mM EDTA, 2 mM DTT, 10 μM pyridoxal 5′-phosphate and different concentrations of either aminooxyacetic acid (◯) or hydroxylamine (●). FIG. 4B. Reaction medium and conditions were as described in A, except that DTT was omitted from the last step of the enzyme preparation. The enzyme was preincubated for 10 minutes in the presence of different concentrations of oxidized glutathione (GSSG).
D-serine formation was monitored by a chemiluminescent assay that specifically detects D-serine. Racemase activity was performed in the presence of 50 mM Tris-HCl (pH 8.0), 18 μl enzyme extract, 1 mM EDTA, 2 mM DTT, 15 μM pyridoxal 5′-phosphate (PLP), and 20 mM L-serine. After 0.5 to 8 hours incubation at 37° C., the reaction was terminated by the addition of trichloroacetic acid (TCA) to a final concentration of 5%. Blanks employed boiled enzyme extract. The precipitated protein was removed by centrifugation, and the supernatant was extracted 2 times with 1 ml of water-saturated diethyl ether to remove TCA. D-serine concentration was determined by incubation of the samples with D-amino acid oxidase, which specifically degrades D-amino acids, generating an α-keto acid, NH3 and hydrogen peroxide (16).
The generation of hydrogen peroxide was quantitated by the use of peroxidase and luminol, which emits light. A 10 μl sample aliquot was added to 100 μl of medium containing 100 mM Tris-HCl (pH 8.8), 10 U/ml peroxidase, and 8 μM luminol. After a 10 to 20 minute delay required to decrease the nonspecific luminol luminescence, 10 μl of D-amino acid oxidase (75 U/ml) were added, and the tubes were gently mixed with a pipette tip. Maximum luminescence was recorded after 10 to 15 minutes at room temperature using a Monolight 2010 luminometer (Analytical Luminescence Laboratory). The amount of D-serine in each sample was calculated by comparison with standard curves. The measurements were reliable in the range of 50 to 2000 pmol D-serine per sample. […] Alternatively, amino acid enantiomers were separated by high performance liquid chromatography (HPLC) using a carbon 18 reverse phase column (RP18 Spheri-5, 22 cm×4.6 mm, Perkin Elmer) with fluorimetric detection after derivatization with L-Boc-cys and OPA, as described (17). The results obtained with chemiluminescent assay were identical to those obtained using HPLC. […]
We wondered whether conversion of L to D-serine might be a by-product of a different enzyme activity with non-enzymatic racemization giving rise to D-serine. Accordingly, we monitored by HPLC levels of L and D-serine at different incubation times (Table 2). […]

Assay [2] deals with NMDA receptor "glycine site" (Homo sapiens, UniProt Q05586). Particulars: reference 14; cited from earlier work.
Assay [3] deals with T1, serine racemase. The assay is described as follows: Substrate specificity of serine racemase. Type of assay: biochemical. Particulars: for Specific activity / % control: 20 mM L-amino acids; for Specific activity: 37° C., pH 8.0, 8 h, HPLC; for % control: activity relative to L-serine, 8 h; for Racemase activity with the amino acid: purified enzyme. As for the experimental part:
(§1) The generation of hydrogen peroxide was quantitated by the use of peroxidase and luminol, which emits light. A 10 μl sample aliquot was added to 100 μl of medium containing 100 mM Tris-HCl (pH 8.8), 10 U/ml peroxidase, and 8 μM luminol. After a 10 to 20 minute delay required to decrease the nonspecific luminol luminescence, 10 μl of D-amino acid oxidase (75 U/ml) were added, and the tubes were gently mixed with a pipette tip. Maximum luminescence was recorded after 10 to 15 minutes at room temperature using a Monolight 2010 luminometer (Analytical Luminescence Laboratory). The amount of D-serine in each sample was calculated by comparison with standard curves. The measurements were reliable in the range of 50 to 2000 pmol D-serine per sample. […] Alternatively, amino acid enantiomers were separated by high performance liquid chromatography (HPLC) using a carbon 18 reverse phase column (RP18 Spheri-5, 22 cm×4.6 mm, Perkin Elmer) with fluorimetric detection after derivatization with L-Boc-cys and OPA, as described (17). The results obtained with chemiluminescent assay were identical to those obtained using HPLC.
The presence of trace amounts of D-serine in the commercial L-serine reagent generates high blank values. Thus, the stock solution of L-serine (100 mM) was routinely pre-treated for 3 days with 30 units of D-amino acid oxidase and 500 units of catalase to remove any D-serine contaminant. The enzymes were precipitated by the addition of 5% TCA. After removal of TCA by extraction with diethyl ether, the L-serine solution was neutralized with NaOH and could be used without further purification, being virtually free of any D-serine contaminant. The same purification procedure was applied for L-alanine and L-threonine.
Additionally, we examined the purified enzyme for the presence of other enzyme activities which might indirectly contribute to D-serine formation. We found no evidence for serine: pyruvate aminotransferase activity, as L-serine levels were not altered in the presence of pyruvate. […] There is no evidence for serine dehydratase activity which would be associated with a marked decrease in L-serine levels.

Assay [4] has as its target T1, serine racemase. Description: Absorption spectra of purified serine racemase. Particulars: 70 μg/ml enzyme preincubated 10 minutes with 1 mM AOAA (FIG. 5). On the procedure: FIG. 5. Absorption spectra of purified serine racemase. Purified enzyme (70 μg/ml) was preincubated for 10 minutes in medium containing 10 mM KPi (pH 7.2), 2 mM DTT, 1 mM EDTA, 10 μM PLP, either in the absence (Control) or in the presence of 1 mM aminooxyacetic acid (AOAA). The distinct peaks of absorbance at 420 and 340 nm were not observed in the presence of buffer alone or when bovine serum albumin was used instead of serine racemase.
For most applications the purified protein was further concentrated using centriplus 30. Protein concentration was determined with Coomassie plus protein assay reagent (Pierce). Enzyme-bound PLP was determined at room temperature by recording the absorbance of the purified protein in the range of 500 to 280 nm using a Lambda Bio spectrophotometer (Perkin Elmer).
Examination of the absorption spectrum of the enzyme confirms the importance of PLP. […] The peak at 420 nm, corresponding to a Schiff's base complex of PLP with an active site lysine, is abolished by treatment with AOAA (FIG. 5).

The target of assay [5] is T1, serine racemase. The assay is described as follows: Racemization of L-serine over time, L- and D-serine by HPLC. Type of assay: biochemical. As for the experimental part:
as §1
We wondered whether conversion of L to D-serine might be a by-product of a different enzyme activity with non-enzymatic racemization giving rise to D-serine. Accordingly, we monitored by HPLC levels of L and D-serine at different incubation times (Table 2). Increases in formation of D-serine are paralleled by stoichiometric decreases in levels of L-serine, making it unlikely that L-serine is converted to any other compound by the enzyme.

Setting [6] is: time 0, 4 mM L-serine, 40 μg/ml purified enzyme, 37° C.

For `NO` [hydroxylamine], at serine racemase [1], the “Effect on enzyme activity (PLP inhibitors)” value is recorded as “inhibit enzyme activity”.
Take `N[C@H](CO)C(=O)O` [D-serine]: in assay [2], the “Potency relative to glycine at the glycine site” value is reported as “up to three times more potent than glycine”.
Consider `N[C@@H](CC(=O)O)C(=O)O` [L-aspartate], for which, at serine racemase [3], the Specific activity was 0 µmol/mg/h, the “% control” value turned out to be 0% and the “Racemase activity with the amino acid” value is “no activity”.
In the case of `NOCC(=O)O` [Aminooxyacetic acid, aminooxyacetic acid], the “Absorption peak at 420 nm of the enzyme (Schiff's base complex of PLP)” value at serine racemase [4] is “abolished”. Further, the “Effect on enzyme activity (PLP inhibitors)” value on serine racemase [1] is given as “inhibit enzyme activity”.
`C[C@@H](O)[C@H](N)C(=O)O` [L-threonine]: at serine racemase [3], the Specific activity turned out to be 0 µmol/mg/h and the “Racemase activity with the amino acid” value is “no activity”.
`Cc1ncc(COP(=O)(O)O)c(C=O)c1O` [PLP, pyridoxal 5′-phosphate]: the “Enzyme activity after dialysis without PLP, on addition of PLP” value on serine racemase [1] (dialysis for 16 hours against 1,000 volumes of purification buffer without PLP) was “can be restored by the addition of PLP”.
Compound `N[C@@H](CO)C(=O)O` [L-serine] had a Specific activity on serine racemase [3] of 4.8 µmol/mg/h. Also, at serine racemase [3], the “% control” value is recorded as 100%. The “[D-sertne]” value at serine racemase [5] (setting [6]) was 0.0007 mM; on serine racemase [5] (time 0.5 h), 0.042 mM; on serine racemase [5] (time 1 h), 0.101 mM; on serine racemase [5] (time 4 h), 0.342 mM. Also, the “[L-serine]” value is 4.00 mM on serine racemase [5] (setting [6]), 3.96 mM at serine racemase [5] (time 0.5 h), 3.93 mM at serine racemase [5] (time 1 h) and 3.65 mM at serine racemase [5] (time 4 h).
Regarding `C[C@H](N)C(=O)O` [L-alanine], the Specific activity at serine racemase [3] was found to be 0.012 µmol/mg/h.
With oxidized glutathione, the “Effect on enzyme activity (sulfhydryl oxidation)” value at serine racemase [1] (DTT omitted, enzyme preincubated for 10 minutes with different concentrations (FIG. 4B)) is on record as “markedly reduces enzyme activity”.

The values are drawn from patent US6984484B1, “Mammalian serine racemase” (The Johns Hopkins University, priority 1999, dated 2006).
